Source: US7767642B2, “Therapeutic peptides for the treatment of metastatic cancer” (Arizona Biomedical Research Commission, priority 2005, dated 2010)
Values joined by “and” are separate entries in the source; they are usually repeats but may differ in a detail not shown here. Equal values may be shown once. Where no end group is shown, it is not given here. TAT = Protein Transduction Domain of the HIV protein TAT (trans-activating transcriptional activator protein), a cell-penetrating sequence

Experiments:
MDA-MB-231 cell line [1] = assay: Scid xenograft model Trial 1, i.p. treatment; type: in vivo; settings: for animals with tumor regression / tumor regression in the regressing animal: once daily MWF
Procedure: Trial 1. The MDA-MB-231 cell line was injected (in matrigel) into the mammary fat pad of 24 mice. These mice were then divided into 3 groups and injected once daily, MWF, for 2 weeks.
Group IA was treated (i.p.) with 10 ug/g body weight MEBTAT peptide
Group IB was treated (i.p.) with 20 ug/g body weight MEBTAT peptide
Group IC was treated (i.p.) with 20 ug/g body weight TAT peptide
At the end of 2 weeks, we had 27% tumor regression in 1/7 animals in group IA, 7% tumor regression in 1/7 animals in group IB, and no tumor regression (0/7) in group IC.
All tumors were surgically resected 3 days after final drugging, and the mice were monitored for an additional 10 days. […] This correlates to a 25% increase in overall survival time for the animals taking 20 ug/g body weight of MEBTAT compared to TAT.

MDA-MB-231 cells = assay: 96-well invasion assay of MEBTAT and alanine-scanning mutants; type: cell-based; settings: 96-well format, 1 hour treatment, 18 hours invasion
Procedure: The amino acids of the MEB sequence [PYEKVSAGNGGSSLS; SEQ ID NO: 1] were replaced, one amino acid at a time, with alanine. (Note that there are only […] mutants, as one of the parental amino acid residues. was already an alanine). Note also that this experiment was done one time, with 4 replicas at each data point.
A new assay was performed in a 96-well format. While the suppression of invasion is not as robust as that observed in the 24-well format, we still observe a 3-fold suppression of invasion with MEBTAT treatment over TAT or PBS. […] Altering any of the remaining amino acids completely eliminated the effect, indicating a critical role for both the YEKV (EGFR/src binding site) and the SAGNGGSSLS (beta-catenin binding site). Also important is the P (at residue #1) that links MEB to the TAT. The proline could be providing important access of the peptide to MUC1 binding sites.
MDA-MB-231 cells were treated for 1 hour with MEBTAT (M), TAT (T), PBS (P), or alanine scanning mutants of MEBTAT. Cells were treated with Calcein-AM and allowed to invade across an 8-uM Transwell into a Type I collagen gel for 18 hours. Invasion was analyzed by spectrophotometry.

β-catenin = molecular target: T1, β-catenin (Homo sapiens, UniProt P35222); assay: β-catenin localization after peptide treatment; type: cell-based; settings: MDA-MB-231 cells treated with peptide
T1 construct: endogenous in cells; host or cells: MDA-MB-231 breast cancer cells
T1 sequence (P35222 1-781): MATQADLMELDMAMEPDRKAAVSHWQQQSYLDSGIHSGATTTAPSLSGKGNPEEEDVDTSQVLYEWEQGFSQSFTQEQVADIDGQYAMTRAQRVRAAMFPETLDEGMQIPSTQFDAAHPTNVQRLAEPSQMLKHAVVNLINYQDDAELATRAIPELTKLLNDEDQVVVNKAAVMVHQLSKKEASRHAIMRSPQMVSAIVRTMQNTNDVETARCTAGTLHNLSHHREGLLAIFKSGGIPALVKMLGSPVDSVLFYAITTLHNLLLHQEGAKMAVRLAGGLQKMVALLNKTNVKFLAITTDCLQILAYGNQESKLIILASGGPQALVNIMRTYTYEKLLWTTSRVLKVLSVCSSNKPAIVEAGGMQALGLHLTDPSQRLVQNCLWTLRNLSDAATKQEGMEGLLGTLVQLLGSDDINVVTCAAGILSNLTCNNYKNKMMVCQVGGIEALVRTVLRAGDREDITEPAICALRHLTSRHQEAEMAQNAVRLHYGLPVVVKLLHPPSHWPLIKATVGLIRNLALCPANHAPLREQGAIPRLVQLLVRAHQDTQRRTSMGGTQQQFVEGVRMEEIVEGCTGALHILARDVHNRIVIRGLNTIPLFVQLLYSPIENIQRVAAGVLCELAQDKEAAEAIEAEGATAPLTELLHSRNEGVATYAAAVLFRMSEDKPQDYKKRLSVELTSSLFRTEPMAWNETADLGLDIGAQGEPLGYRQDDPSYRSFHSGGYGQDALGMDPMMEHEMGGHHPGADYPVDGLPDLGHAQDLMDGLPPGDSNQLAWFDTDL
Procedure: Immunofluorescence: Cells undergoing invasion through collagen gels are immunofluorescently labeled in situ (while in the collagen gel). For immunofluorescence on collagen gels, gels are permeabilized with 0.5% Triton X-100 in 10 mM Pipes (pH 6.8), 50 mM NaCl, 300 mM sucrose and 3 mM MgCl2 for 5 minutes at room temperature. Gels are blocked with 3% BSA (Sigma), 0.05% Tween 20, in a 1:1 solution of PBS and Enhancing Wash Buffer (Innovex). Primary antibodies are incubated overnight at 4° C., and gels washed for 6 hours in 1:1 PBS: Enhancing Wash Buffer. Secondary antibodies are incubated overnight at 4° C., and washed again for 6 hours at room temperature. Gels are then mounted, coverslipped and analyzed using a Zeiss laser scanning confocal microscope. The following antibodies are used: anti-biotin (streptavidin-Alexa594, 1:500, Molecular Probes), anti-Muc1 (1:100, Santa Cruz), anti-vinculin (V9131, 1:400, Sigma Chemical Company) anti-β-catenin (H-102, 1:100, Santa Cruz Biochemical), anti-fascin (FCN01, 1:50, Neomarkers), and phalloidin-Alexa546 (1:100, Molecular Probes). Secondary antibodies can be either Alexa 488 or 546 from Molecular Probes.

MDA-MB-231 cell line [2] = assay: Scid xenograft model Trial II, i.v. treatment; type: in vivo; settings: 20 ug/g body weight i.v.
Procedure: Trial II: The MDA-MB-231 cell line was injected (in matrigel) into the mammary fat pad of 16 mice. These mice were then divided into 2 groups and injected once daily, MTWThF, for 2 weeks.
Group IIA was treated (i.v.) with 20 ug/g body weight MEBTAT peptide
Group IIB was treated (i.v.) with 20 ug/g body weight TAT peptide
All animals were sacrificed and analyzed for metastases.

[3] = test system: MDA-MB-231 breast cancer cells; assay: Invasion assay with TAT-conjugated MUC1-mimetic peptides; type: cell-based; settings: MDA-MB-231, compared to control TAT peptide
Procedure: FIG. 4. Treatment of MDA-MB-231 cells with MEBTAT leads to a 5-fold decrease in cell invasiveness as compared to control TAT peptide in invasion assays.
(§1) Peptide treatment and invasion assay: 8 um pore size Transwell inserts (Corning) will be inverted and coated with 90 ul of Type I collagen (rat tail, BD Scientific) gel mixture (2.2% sodium bicarbonate, 10× M199 media), and allowed to solidify for 30 minutes. Wells are then be inverted into DMEM with 20% fetal calf serum and allowed to rehydrate. Peptides are incubated with BioPORTER reagent (Sigma, St. Louis Mo.) for 5 minutes to promote cellular uptake, vortexed, and added to cells in serum-free media (10 ng/ml, 100 ng/ml and […] concentrations will be tested) and placed in the upper chamber of the Transwell. Cells will then be incubated for 2, 4 or 24 hours. Media is removed and gels fixed with 4% paraformaldehyde for 30 minutes and transferred to PBS, pH 7.4. Collagen gels will then either be stained with bizbenzamide for 40 minutes and all cells invaded into a gel enumerated or used in immunofluorescence assays. Invasion of peptide-treated cells are compared to PBS/bioporter treated controls or irrelevant peptide treatment.
We have designed TAT-conjugated MUC1-mimetic peptides for their ability to inhibit the invasion of MDA-MB-231 and MDA-MB-468 invasive breast cancer cell lines. […]

[4] = test system: MDA-MB-468 breast cancer cells; assay: Transwell collagen gel invasion assay, peptides delivered with Bioporter; type: cell-based
Procedure: FIG. 1. […] A collagen gel matrix was poured onto the bottom of 8 uM pore sized-transwell inserts (modified Boyden's chamber), then inverted into 20% FBS. Cells were incubated with 100 ng/ml of peptide (with Bioporter reagent to allow for cellular uptake), then added to the top of the Transwell. Cells (serum-free) were allowed to invade into the gel, the gel was removed and invading cells enumerated.
as §1
To investigate the functional significance of MUC1 expression on breast cancer invasion, we have incubated invasive breast cancer cell lines with MUC1-mimetic peptides designed to the β-catenin interacting domain. We then monitored the effects of peptide treatment on invasion through a filter and into a collagen gel.
We performed initial experiments with these β-catenin-binding site (M2) peptides in MDA-MB-468 cells. […] We observed less than 15 M2 peptide-treated cells invaded into a collagen matrix in a 4 hour period, compared to approximately 125 cells in PBS controls.

[5] = test system: MDA-MB-231 and MDA-MB-468 invasive breast cancer cell lines; assay: Invasion assay with TAT-conjugated MUC1-mimetic peptides, cell line not given; type: cell-based; settings: TAT-conjugated peptide
Procedure: as §1
We have designed TAT-conjugated MUC1-mimetic peptides for their ability to inhibit the invasion of MDA-MB-231 and MDA-MB-468 invasive breast cancer cell lines.
Peptides were designed to carry the TAT transduction domain for entry into cells. The following peptides were designed, produced and tested: […]

[6] = 10 ug/g body weight i.p., end of 2 weeks
[7] = 20 ug/g body weight i.p., end of 2 weeks

For “TAT-PYEKVSAGNGGSSLS ({TAT}-PYEKVSAGNGGSSLS; listed as Homo sapiens) [MEBTAT]”, the “animals with tumor regression” value (MDA-MB-231 cell line [1]; [6]) was 1/7, the “tumor regression in the regressing animal” value (MDA-MB-231 cell line [1]; [6]) was 27% and the “increase in overall survival time compared to TAT” value (MDA-MB-231 cell line [1]; 20 ug/g body weight i.p.) was 25%. The “animals with tumor regression” value (MDA-MB-231 cell line [1]; [7]) was 1/7, the “tumor regression in the regressing animal” value (MDA-MB-231 cell line [1]; [7]) was 7% and the “toxicity of the peptide treatment” value (MDA-MB-231 cell line [1]; 10 and 20 ug/g body weight i.p., 2 weeks) was “no detectable toxicity”. For the same substance, the “tumor regrowth after surgical resection” value (MDA-MB-231 cell line [1]; all 3 groups, monitored 10 days after resection) was “no statistically significant difference in growth rates”, the “decrease in tumor volume compared to TAT” value (MDA-MB-231 cell line [1]; all treatment groups, i.p., end of 2 weeks) was 20% and the “suppression of invasion over TAT or PBS” value (MDA-MB-231 cells) was 3 fold. The β-catenin localization (β-catenin) was “β-catenin localization at sites of focal adhesion and lamellapodia”, the toxicity (MDA-MB-231 cell line [2]; 2 weeks) was “no detectable toxicity” and the “tumor volume reduction in regressing animals” value (MDA-MB-231 cell line [2]; end of 2 weeks, individual mice) was 7% and 9% and 21%. The “animals with tumor regression” value (MDA-MB-231 cell line [2]; once daily MTWThF, end of 2 weeks) was 3/8, the “visible metastases in diaphragms (animals)” value (MDA-MB-231 cell line [2]; sacrifice at 2 weeks) was 4/8 and the “visible metastases in livers (animals)” value (MDA-MB-231 cell line [2]; sacrifice at 2 weeks) was 1/8. The “visible metastases in lungs (animals)” value (MDA-MB-231 cell line [2]; sacrifice at 2 weeks) was 0/8 and the “decrease in cell invasiveness / block of invasion” value [3] was 5 fold and 6 fold.
For “M2: MUC1-β-catenin binding domain mimetic peptide, SEQ ID NO: 7 (SAGNGGSSLSY; listed as Homo sapiens)”, the “cells invaded into a collagen matrix” value ([4]; 4 hour period, approximately 125 cells in PBS controls) was “less than 15 cells”, the “inhibition of invasion into a collagen matrix” value ([4]; MDA-MB-468, 100 ng/ml peptide with Bioporter, vs PBS controls) was “approximately 8 fold” and the “effect on invasion” value ([4]; MDA-MB-468, compared to PBS treated controls) was “inhibits invasion”.
“TAT-SAGNGGSSLS ({TAT}-SAGNGGSSLS; listed as Homo sapiens) [MBTAT]” was tested, and the suppression of invasion [5] was 8 fold.
“TAT-SSTDRSPYEKVSAGNGGSSLSYTNP ({TAT}-SSTDRSPYEKVSAGNGGSSLSYTNP; listed as Homo sapiens) [MTAT1, used for positive controls, reference compound]” showed an increase of invasion [5] of 18 fold.
